Drawing on patent US11254688B2 (Boehringer Ingelheim International GmbH, priority 2018, dated 2022), this text covers IC50 for 35 compounds.

As usually defined, the IC50 is the midpoint of a concentration-inhibition curve. A low value points to greater potency.

Where a name gives a salt, the structure may show the parent alone.

The experiment deals with T1, hGOAT (Homo sapiens, UniProt Q96T53).
T1 construct: expressed in transfected cells; host or cells: HEK293 (Hek293 hGOAT/PPGhrl Clone #1B8)
T1 sequence (Q96T53 1-435): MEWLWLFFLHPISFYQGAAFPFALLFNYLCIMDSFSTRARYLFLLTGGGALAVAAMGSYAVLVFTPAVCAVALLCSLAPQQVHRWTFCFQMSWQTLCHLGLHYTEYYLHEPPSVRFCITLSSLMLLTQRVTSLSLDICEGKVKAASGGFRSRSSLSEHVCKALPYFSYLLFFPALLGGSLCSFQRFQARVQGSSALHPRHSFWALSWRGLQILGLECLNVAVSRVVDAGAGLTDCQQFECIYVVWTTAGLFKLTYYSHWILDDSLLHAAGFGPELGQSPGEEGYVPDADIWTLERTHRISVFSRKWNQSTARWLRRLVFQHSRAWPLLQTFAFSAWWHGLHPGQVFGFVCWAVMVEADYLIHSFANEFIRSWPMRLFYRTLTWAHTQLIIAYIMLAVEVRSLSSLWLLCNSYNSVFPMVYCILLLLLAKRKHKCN
In words: Determination of hGOAT activity in HEK293 cells after incubation with test compound (acyl-ghrelin ELISA). It counts as cell-based. To be noted: HEK293 cells stably transfected with preproghrelin and human GOAT; octanoate-BSA 100 μM; 5 hours incubation; acyl-ghrelin in medium by ELISA; 8 compound concentrations. (An ELISA detects its analyte on a solid surface through an enzyme-linked reagent.)
Consider `Cc1nc2nonc2c(N)c1Cc1ccc(OC(F)(F)F)c(C#N)c1` [Compound 16.1, 5-({7-Amino-5-methyl-[1,2,5]oxadiazolo[3,4-b]pyridin-6-yl}methyl)-2-(trifluoromethoxy)benzonitrile], for which half-maximal inhibition (IC50) was put at 0.26 nM.

The compound `Cc1nc2nonc2c(N)c1Cc1ccc(OC2CCOCC2)nc1` [Compound 21.12, 5-Methyl-6-[6-(tetrahydro-pyran-4-yloxy)-pyridin-3-ylmethyl]-[1,2,5]oxadiazolo[3,4-b]pyridin-7-ylamine] had an IC50 of 0.978 nM.

For `Cc1nc2nonc2c(N)c1Cc1ccc(C#N)c(OCCC(F)(F)F)c1` [Compound 21.4, 4-({7-Amino-5-methyl-[1,2,5]oxadiazolo[3,4-b]pyridin-6-yl}methyl)-2-(3,3,3-trifluoropropoxy)benzonitrile], the IC50 worked out at 0.786 nM.

Take `Cc1nc2nonc2c(N)c1Cc1ccc(-c2cscc2C#N)nc1` [Compound 12.4, 4-[5-(7-Amino-5-methyl-[1,2,5]oxadiazolo[3,4-b]pyridin-6-ylmethyl)-pyridin-2-yl]-thiophene-3-carbonitrile]: the IC50 was 1.52 nM.

In turn, `Cc1nc2nonc2c(N)c1Cc1ccc(F)c(F)c1` [Compound 4.0, 6-[(3,4-Difluorophenyl)methyl]-5-methyl-[1,2,5]oxadiazolo[3,4-b]pyridin-7-amine] returned an IC50 of 0.494 nM.

On to `COc1cc(Br)ccc1Cc1c(C)nc2nonc2c1N` [Compound 2.3, 6-[(4-Bromo-2-methoxyphenyl)methyl]-5-methyl-[1,2,5]oxadiazolo[3,4-b]pyridin-7-amine], for which the midpoint of inhibition, the IC50, lay at 0.06 nM.

The compound `COc1cc(Cc2c(Cl)nc3nonc3c2N)ccc1Br` [Compound 23.6, 6-[(4-Bromo-3-methoxyphenyl)methyl]-5-chloro-[1,2,5]oxadiazolo[3,4-b]pyridin-7-amine] yielded an IC50 of 0.078 nM.

Turning to `Nc1c(Cc2ccc(C(F)(F)F)cc2)c(Cl)nc2nonc12` [Compound 23.2, 5-Chloro-6-{[4-(trifluoromethyl)phenyl]methyl}-[1,2,5]oxadiazolo[3,4-b]pyridin-7-amine], inhibition was half-maximal at 0.232 nM (IC50).

As to `Cc1nc2nonc2c(N)c1Cc1ccc(C2(C#N)CC2)nc1` [Compound 4.8, 1-[5-({7-Amino-5-methyl-[1,2,5]oxadiazolo[3,4-b]pyridin-6-yl}methyl)pyridin-2-yl]cyclopropane-1-carbonitrile], it took 1.41 nM to reach half-maximal inhibition (IC50).

With `Cc1nc2nonc2c(N)c1Cc1ccc(C#N)c(F)c1` [Compound 4.31, 4-({7-Amino-5-methyl-[1,2,5]oxadiazolo[3,4-b]pyridin-6-yl}methyl)-2-fluorobenzonitrile], half-maximal inhibition (IC50) was put at 0.487 nM.

`Cc1nc2nonc2c(N)c1Cc1ccc(C(=O)Nc2ncnn2C)cc1` [Compound 14.17, 4-({7-Amino-5-methyl-[1,2,5]oxadiazolo[3,4-b]pyridin-6-yl}methyl)-N-(1-methyl-1H-1,2,4-triazol-5-yl)benzamide] yielded an IC50 of 4.5 nM.

On to `Cc1nc2nonc2c(N)c1Cc1ccc(-n2cc(C#N)cn2)nc1` [Compound 20.1, 1-[5-({7-Amino-5-methyl-[1,2,5]oxadiazolo[3,4-b]pyridin-6-yl}methyl)pyridin-2-yl]-1H-pyrazole-4-carbonitrile Trifluoro-Acetic Acid Salt], for which the IC50 was 4.63 nM.

`Cc1nc2nonc2c(N)c1Cc1ccc(-c2ccc(C#N)s2)nc1` [Compound 12.5, 5-[5-(7-Amino-5-methyl-[1,2,5]oxadiazolo[3,4-b]pyridin-6-ylmethyl)-pyridin-2-yl]-thiophene-2-carbonitrile] had an IC50 of 3.66 nM.

Consider `Cc1nc2nonc2c(N)c1Cc1ccc(C2(C(N)=O)CC2)nc1` [Compound 19.1, 1-[5-({7-Amino-5-methyl-[1,2,5]oxadiazolo[3,4-b]pyridin-6-yl}methyl)pyridin-2-yl]cyclopropane-1-carboxamide], for which half-maximal inhibition (IC50) was put at 4.53 nM.

In the case of `Nc1c(Cc2ccc(OC(F)(F)F)cc2)c(Cl)nc2nonc12` [Compound 23.3, 5-Chloro-6-{[4-(trifluoromethoxy)phenyl]methyl}-[1,2,5]oxadiazolo[3,4-b]pyridin-7-amine], the IC50 is 0.298 nM.

For the compound `Cc1nc2nonc2c(N)c1Cc1ccc2nn(C)cc2c1` [Compound 4.34, 5-Methyl-6-[(2-methyl-2H-indazol-5-yl)methyl]-[1,2,5]oxadiazolo[3,4-b]pyridin-7-amine], it took 1.4 nM to reach half-maximal inhibition (IC50).

In turn, `Cc1nc2nonc2c(N)c1Cc1ccc(C(C)(C)C(N)=O)nc1` [Compound 19.3, 2-[5-({7-Amino-5-methyl-[1,2,5]oxadiazolo[3,4-b]pyridin-6-yl}methyl)pyridin-2-yl]-2-methylpropanamide] returned an IC50 of 0.555 nM.

`COc1cc(C#N)ccc1Cc1c(C)nc2nonc2c1N` [Compound 2.4, 4-({7-Amino-5-methyl-[1,2,5]oxadiazolo[3,4-b]pyridin-6-yl}methyl)-3-methoxybenzonitrile] displayed an IC50 of 0.133 nM.

`Cc1nc2nonc2c(N)c1Cc1cccc(S(=O)(=O)C(F)(F)F)c1` [Compound 4.42, 5-Methyl-6-[(3-trifluoromethanesulfonylphenyl)methyl]-[1,2,5]oxadiazolo[3,4-b]pyridin-7-amine] had an IC50 of 0.377 nM.

Regarding `Cc1nc2nonc2c(N)c1Cc1ccc(C#N)c(OC(F)F)c1` [Compound 4.35, 4-({7-Amino-5-methyl-[1,2,5]oxadiazolo[3,4-b]pyridin-6-yl}methyl)-2-(difluoromethoxy)benzonitrile], the IC50 came to 0.111 nM.

`Cc1nc2nonc2c(N)c1Cc1ccc(F)cc1F` [Compound 2.7, 6-[(2,4-Difluorophenyl)methyl]-5-methyl-[1,2,5]oxadiazolo[3,4-b]pyridin-7-amine] gave an IC50 of 0.353 nM.

Compound `Cc1nc2nonc2c(N)c1Cc1cnc(Cl)cc1C(F)F` [Compound 25.2, 6-{[6-Chloro-4-(difluoromethyl)pyridin-3-yl]methyl}-5-methyl-[1,2,5]oxadiazolo[3,4-b]pyridin-7-amine] yielded an IC50 of 4.84 nM.

`COc1cc(Cc2c(C)nc3nonc3c2N)ccc1C#N` [Compound 2.5, 4-({7-Amino-5-methyl-[1,2,5]oxadiazolo[3,4-b]pyridin-6-yl}methyl)-2-methoxybenzonitrile] had an IC50 of 0.402 nM.

For `Nc1c(Cc2ccc(F)cc2)c(Cl)nc2nonc12` [Compound 23.5, 5-Chloro-6-[(4-fluorophenyl)methyl]-[1,2,5]oxadiazolo[3,4-b]pyridin-7-amine], the IC50 was found to be 0.737 nM.

For `Cc1nc2nonc2c(N)c1Cc1ccc(C(N)=O)cc1` [Compound 14.1, 4-({7-Amino-5-methyl-[1,2,5]oxadiazolo[3,4-b]pyridin-6-yl}methyl)benzamide], half-maximal inhibition (IC50) required 6.29 nM.

As for `Cc1nc2nonc2c(N)c1Cc1cccc(N=S(C)(C)=O)c1` [Compound 13.1, {[3-({7-Amino-5-methyl-[1,2,5]oxadiazolo[3,4-b]pyridin-6-yl}methyl)phenyl]imino}dimethyl-λ^6-sulfanone], the IC50 was determined as 1.54 nM.

Compound `Cc1nc2nonc2c(N)c1Cc1ccnc(OC(F)F)c1` [Compound 4.48, 6-(2-Difluoromethoxy-pyridin-4-ylmethyl)-5-methyl-[1,2,5]oxadiazolo[3,4-b]pyridin-7-ylamine] registered an IC50 of 3 nM.

Take `Cc1nc2nonc2c(N)c1Cc1ccc(CO)cc1` [Compound 17.1, [4-({7-Amino-5-methyl-[1,2,5]oxadiazolo[3,4-b]pyridin-6-yl}methyl)phenyl]methanol]: the IC50 was 0.726 nM.

The compound `CCC(C#N)(CC)c1ccc(Cc2c(C)nc3nonc3c2N)cn1` [Compound 4.25, 2-[5-({7-Amino-5-methyl-[1,2,5]oxadiazolo[3,4-b]pyridin-6-yl}methyl)pyridin-2-yl]-2-ethylbutanenitrile] showed an IC50 of 0.081 nM.

`Cc1ncc(-c2ccc(Cc3c(C)nc4nonc4c3N)cn2)o1` [Compound 4.22, 5-Methyl-6-{[6-(2-methyl-1,3-oxazol-5-yl)pyridin-3-yl]methyl}-[1,2,5]oxadiazolo[3,4-b]pyridin-7-amine] came in with an IC50 of 4.81 nM.

Turning to `Cc1nc2nonc2c(N)c1Cc1ccc(C(=O)NC2(CO)CC2)cc1` [Compound 14.6, 4-({7-Amino-5-methyl-[1,2,5]oxadiazolo[3,4-b]pyridin-6-yl}methyl)-N-[1-(hydroxymethyl)cyclopropyl]benzamide], the midpoint of inhibition, the IC50, lay at 4.27 nM.

`Cc1nc2nonc2c(N)c1Cc1ccn2ncnc2c1` [Compound 4.21, 5-Methyl-6-({[1,2,4]triazolo[1,5-a]pyridin-7-yl}methyl)-[1,2,5]oxadiazolo[3,4-b]pyridin-7-amine] returned an IC50 of 3.41 nM.

Consider `Cc1nc2nonc2c(N)c1Cc1ccc(C(F)F)cc1` [Compound 17.2, 6-{[4-(difluoromethyl)phenyl]methyl}-5-methyl-[1,2,5]oxadiazolo[3,4-b]pyridin-7-amine], for which half-maximal inhibition (IC50) was put at 0.171 nM.

`Cc1nc2nonc2c(N)c1Cc1ccc(C#N)c(O[C@H]2CCC(=O)NC2)c1` [Compound 21.9, 4-({7-Amino-5-methyl-[1,2,5]oxadiazolo[3,4-b]pyridin-6-yl}methyl)-2-{[(3S)-6-oxopiperidin-3-yl]oxy}benzonitrile] displayed an IC50 of 17 nM.

As to `Cc1nc2nonc2c(N)c1Cc1ccnc(OC(F)(F)F)c1` [Compound 4.56, 5-Methyl-6-{[2-(trifluoromethoxy)pyridin-4-yl]methyl}-[1,2,5]oxadiazolo[3,4-b]pyridin-7-amine], half-maximal inhibition (IC50) was put at 0.519 nM.
